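These data come from cells grown in 96-well plates and exposed to compound for 48 hours at five concentrations. GI50: concentration for 50% inhibition of growth. TGI denotes the concentration required for complete inhibition of growth.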
What was measured:
Assay in all cases: growth of human tumour cells (NCI), 48 h
[1] = tested on: HCC-2998 colon
[2] = tested on: HOP-92 NSCLC
[3] = tested on: K-562 leukemia
[4] = tested on: SK-MEL-28 melanoma
[5] = tested on: CCRF-CEM leukemia
[6] = tested on: MALME-3M melanoma
[7] = tested on: IGROV1 ovarian
[8] = tested on: MDA-MB-231 breast
[9] = tested on: SR leukemia
[10] = tested on: DU-145 prostate

| Compound | TGI [1] [µM] | TGI [2] [µM] | TGI [3] [µM] | TGI [4] [µM] | TGI [5] [µM] | TGI [6] [µM] | TGI [7] [µM] | GI50 [8] [µM] | TGI [8] [µM] | GI50 [1] [µM] | GI50 [2] [µM] | GI50 [3] [µM] | GI50 [4] [µM] | GI50 [5] [µM] | GI50 [9] [µM] | TGI [9] [µM] | GI50 [7] [µM] | GI50 [10] [µM] | TGI [10] [µM] | GI50 [6] [µM] |
| --- | --- | --- | --- | --- | --- | --- | --- | --- | --- | --- | --- | --- | --- | --- | --- | --- | --- | --- | --- | --- |
| CCCC1C(=O)C(CC)Cc2c(OC)ccc(OC)c21 (stereo not drawn) | > 100 | > 100 | > 100 | > 100 | > 100 | > 100 | > 100 | – | – | – | – | – | – | – | – | – | – | – | – | – |
| N=C1C(c2nc3ccccc3s2)=C(O)CN1c1ccc(Cl)cc1Cl | 31.1 | 38.1 | 64.5 | > 100 | > 100 | – | 46.9 | 17.1 | 42.9 | 10.4 | 15.8 | 10.7 | 21 | 19.2 | 1.49 | 34.6 | 19.4 | 18.9 | 63.7 | – |
| N#CC(C(=O)CCC(=O)Nc1ccc(Cl)cc1)c1ccccc1Cl (stereo not drawn) | – | > 100 | > 100 | > 100 | > 100 | > 100 | > 100 | – | – | – | – | – | – | – | – | – | – | – | – | – |
| CCN(CC)C(=O)CNC(=O)OC(C)(C)C | > 100 | > 100 | > 100 | > 100 | > 100 | > 100 | > 100 | – | – | – | – | – | – | – | – | – | – | – | – | – |
| O=S(=O)(NCCCNc1cc(-c2cn(-c3ccccc3)nc2-c2cccc(O)c2)ccn1)c1cccc2ccccc12 | 3.45 | 7.28 | 4.48 | 7.33 | > 100 | – | > 100 | 1.86 | 6.52 | 1.75 | 1.41 | 0.614 | 2.37 | 3.12 | 1.84 | 7.33 | 5.86 | 4 | > 100 | – |
| CC(C(=O)c1ccccc1)C1(O)C(=O)Nc2ccccc21 (stereo not drawn) | > 100 | > 100 | > 100 | > 100 | > 100 | > 100 | > 100 | – | – | – | – | – | – | – | – | > 100 | – | – | – | – |
| C[Si](C)(C)/C=C\CCCN1C(=O)CCC1=O | > 100 | > 100 | > 100 | > 100 | > 100 | > 100 | > 100 | – | – | – | – | – | – | – | – | > 100 | – | – | – | – |
| COc1ccc(-c2csc(NC(=O)N3CCN(c4cc5c(cc4F)c(=O)c(C(=O)O)cn5C4CC4)CC3)n2)cc1 | > 100 | 6.56 | 14.9 | – | 13.1 | – | > 100 | 2.71 | > 100 | 3.83 | 1.6 | 2.71 | – | 1.43 | 1.93 | 13 | 2.36 | 1.72 | > 100 | – |
| COc1ccc(C(=O)C(Br)C(Br)C(=O)O)cc1 (stereo not drawn) | – | > 100 | 82.9 | > 100 | – | 46.2 | > 100 | – | > 100 | – | – | – | – | – | – | – | – | – | > 100 | – |
| O=C(c1cc2c(C(F)(F)F)onc2c2ccccc12)C(F)(F)F | 60.4 | 4.99 | > 40 | > 75.1 | 21.6 | – | > 100 | – | – | – | – | – | – | – | – | > 100 | – | – | – | – |
| CC(=O)Nc1ccc2oc(=O)c3ccccc3c2c1 | > 100 | > 100 | > 100 | > 100 | > 100 | > 100 | > 100 | – | – | – | – | – | – | – | – | > 100 | – | – | > 100 | – |
| NCC1OC(n2cnc3c(=O)[nH]c(N)nc32)C(O)C1O (stereo not drawn) | – | > 100 | > 100 | > 100 | > 100 | > 100 | > 100 | – | > 100 | – | – | – | – | – | – | – | – | – | > 100 | – |
| CCOC(=O)CNC1C(NC(C)=O)C(OC)OC2COC(c3ccccc3)OC21 (stereo not drawn) | > 100 | > 100 | > 100 | > 100 | > 100 | > 100 | > 100 | – | – | – | – | – | – | – | – | – | – | – | – | – |
| NNC(=O)CCC(=O)Nc1ccc(Cl)cc1Cl | > 100 | > 100 | > 100 | > 100 | > 100 | > 100 | > 100 | – | – | – | – | – | – | – | – | > 100 | – | – | – | – |
| COc1cc2ccnc3c2c(c1OC)CC1CC(O)C(OC)CC31 (stereo not drawn) | > 100 | 81.2 | > 100 | 75.2 | > 100 | > 100 | > 100 | – | – | – | – | – | – | – | – | > 100 | – | – | – | – |
| COc1cc([C@@H]2c3cc4c(cc3[C@@H](NCc3ccc(C#N)cc3)C3COC(=O)[C@@H]32)OCO4)cc(OC)c1O (stereo partly drawn) | 3.69 | 49.4 | 15.9 | 15.2 | 7.01 | 4.9 | 7.29 | – | – | – | – | – | – | – | – | – | – | – | – | – |
| CC([C@H]1CCC2C3CCC4CC5(CC[C@]4(C)C3CC[C@@]21C)c1ccccc1C(=O)N5C)N(C)C (stereo partly drawn) | > 100 | > 100 | 92.2 | 35 | > 100 | 42.5 | > 100 | – | – | – | – | – | – | – | – | 74.7 | – | – | – | – |
| O=C1/C(=C/c2ccccc2Br)COc2ccc(O)c(O)c21 | 3.4 | 9 | > 100 | 4.42 | 1.55 | 3.27 | 4.29 | 1.42 | 6.17 | 1.83 | 2.71 | 0.339 | 1.94 | 0.311 | – | – | 0.742 | 1.49 | 3.23 | 1.28 |
| CCCCCCCC(=O)OCC1OC(n2cc(F)c(=O)[nH]c2=O)C(NC(=O)OCc2ccccc2)C(OC(=O)CCCCCCC)C1O (stereo not drawn) | > 100 | 61.4 | 61.8 | > 100 | 66.1 | 44.2 | > 100 | – | – | – | – | – | – | – | – | 64 | – | – | – | – |
| CC1Cc2c(N)nc(N3CCOCC3)nc2NC1=O (stereo not drawn) | – | – | > 100 | > 100 | > 100 | > 100 | > 100 | – | – | – | – | – | – | – | – | – | – | – | – | – |
| C[C@]12CC(C#N)C(=O)C(O)=C1CC[C@@H]1C2CC[C@@]2(C)C1CC[C@@H]2O (stereo partly drawn) | > 100 | 76.4 | > 100 | > 100 | > 100 | > 100 | 63.7 | – | – | – | – | – | – | – | – | – | – | – | – | – |
| CC(C)c1cccc(C(C)C)c1N=C(N)C#N | > 100 | > 100 | > 61.7 | > 100 | > 100 | > 100 | > 100 | – | – | – | – | – | – | – | – | > 90 | – | – | – | – |

Source: PubChem BioAssay (NCI)
